Consider three molecules from US8436002B2, “AKT inhibitors” (Eli Lilly and Company, priority 2009, dated 2013).

As usually defined, the inhibition is the percentage by which the read-out fell short of the control. As usually defined, the IC50 is the concentration at which inhibition is half-maximal.

In one test the test system is AKT. The test is described as follows: AKT In Vivo Target Inhibition (Oral and Parenteral), U87MG tumors in athymic nude mice. The following applies: Mus musculus, U-87 MG, after 2 hours at 12.5 mg/kg, mean of 6 animals per group. How it is done:
U87MG human glioblastoma cells (5×106) are subcutaneously implanted into the flank of athymic nude mice in 0.2 mL of matrigel. Two weeks post-implantation, mice are dosed orally or parenterally according to a time course, single dose/single time point, or dose response protocol for the determination of TMED50 (threshold minimum effective dose). Tumors are flash frozen at harvest and blood is collected for the determination of parent compound plasma exposure and the calculation of TMEC50 (threshold minimum effective concentration) in the case of dose response studies. Tumors or tissues are pulverized in liquid N2 and lysed in 400 μL of XY Lysis Buffer (10 μg/mL Leupeptin, 10 μg/mL Trypsin-Chymotrypsin Inhibitor, 10 μg/mL Tosyl phenyl-alanyl chloromethyl ketone, 10 μg/mL Aprotinin, 60 mM Beta-Glycerol Phosphate, 1% Triton X100, 25 mM Tris pH 7.5, 2.5 mM Pyrophosphate, 150 mM NaCl, 2 mM p-tosyl-L-arginine methyl ester, 15 mM para-nitrophenyl phosphate, 5 mM Benzamidine, 1 mM Na Vanadate, 10 mM NaF, 50 μg/mL phenyl-methane sulfonyl fluoride, 1 mM 1,4-Dithiothreitol (DTT), 15 mM EDTA pH 8.0, 5 mM EGTA pH 8.0, 1 μM Microcystin, 1 μM Okadaic Acid, and 1 Roche Complete protease inhibitor mini-tablet per 10 mL) using Lysing Matrix D tubes (MP Biomedicals, Solon, Ohio, cat #6913-500) and a BIO101 Thermo Savant Fast Prep FP12. Lysates are aliquoted and either assayed immediately or stored at −80° C. for later testing. In Vivo Target Inhibition of AKT is measured utilizing Meso Scale Discovery (Gaithersburg, Md.) ELISA technology to assess effects on phosphorylation of the downstream effectors FOXO, PRAS40 and GSK3β(S9). In summary, 20 μg of lysate is added to carbon electrode containing 96-well plates pre-spotted with the appropriate capture antibodies. The protein of interest is probed using a ruthenium labeled detection antibody. Upon the passage of current over the electrode in the presence of read buffer containing the co-reactant TPA, electro-chemiluminescence results in the generation of light which is quantified and recorded using the MSD Sector 6000 instrument. For each study, percent inhibitions are calculated relative to the vehicle control group and ANOVA analysis is performed using the JMP software package for the determination of statistical significance.

For test [1], the target named is T1, ROCK2 Human recombinant enzyme (Homo sapiens, UniProt O75116).
T1 construct: ROCK2 Human recombinant enzyme (residues 11-552, histidine-tagged, expressed in insect cells); His tag; host or cells: insect cells
T1 sequence (O75116 11-552): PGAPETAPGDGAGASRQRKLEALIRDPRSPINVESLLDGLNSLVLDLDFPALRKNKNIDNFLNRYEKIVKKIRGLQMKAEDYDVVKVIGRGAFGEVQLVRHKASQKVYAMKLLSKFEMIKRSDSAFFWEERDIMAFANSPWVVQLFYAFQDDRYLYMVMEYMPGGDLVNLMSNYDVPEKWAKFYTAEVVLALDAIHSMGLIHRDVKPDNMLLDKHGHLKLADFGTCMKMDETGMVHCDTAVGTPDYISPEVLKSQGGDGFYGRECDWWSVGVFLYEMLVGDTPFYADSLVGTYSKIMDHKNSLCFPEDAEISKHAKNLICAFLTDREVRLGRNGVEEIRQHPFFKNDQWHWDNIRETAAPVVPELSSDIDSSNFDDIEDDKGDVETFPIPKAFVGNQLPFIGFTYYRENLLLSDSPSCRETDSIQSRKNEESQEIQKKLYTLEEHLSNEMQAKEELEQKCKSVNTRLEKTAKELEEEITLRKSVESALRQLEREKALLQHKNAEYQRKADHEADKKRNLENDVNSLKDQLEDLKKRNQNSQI
The test is described as follows: ROCK2 In Vitro Enzyme Assay (Transcreener Kinase ADP-FP). Format: biochemical. The following applies: 10 micromolar ATP; read-out: IC50 against ROCK2. As for the experimental part:
Compound IC50 values against ROCK2 kinase are determined using the ROCK2 Transcreener™ Kinase ADP-FP Assay. This assay assesses the activity of ROCK2 in the presence of compound inhibitors by measuring the concentration of ADP formed in a kinase reaction. The kinase reactions (25 μL reaction volumes) are performed in 96-well half-area black polystyrene plates. Enzyme is added to start the reactions. Final reaction conditions are 20 millimolar 3-(N-Morpholino)-propanesulfonic acid pH 7.4, 4 millimolar beta-glycero-phosphate, 0.01% TRITON™ X-100, 5 millimolar magnesium chloride, 25 micromolar peptide substrate (sequence RFARKGSLRQKNV (SEQ ID NO:1)), 10 micromolar ATP, ROCK2 Human recombinant enzyme (residues 11-552, histidine-tagged, expressed in insect cells), 4% dimethysulfoxide and serial dilutions of compound (diluted 1:3 from 20,000 to 1 nanomolar). […] Quenched reactions are incubated for 4-16 hours, and then read in a Tecan Ultra Evolution plate reader in Fluorescence Polarization mode using polarizing filters of Ex612 nm and Em633 nm wavelength. […] The IC50 value for each compound is derived using percent inhibition data which is calculated using the micromolar ADP reaction data relative to on-plate controls (active enzyme versus 100 millimolar EDTA-inhibited enzyme controls). […]

Test [2] has as its system phosphorylated GSK3β (S9) in U87MG cells. The test is described as follows: AlphaScreen SureFire detection of phosphorylated GSK3β (S9) in U87MG cells. In kind it is cell-based. To be noted: Homo sapiens, U-87 MG, 1 hour, read-out: IC50, formation of phosphorylated GSK3β (S9). As for the experimental part:
The effect of compounds on the formation of endogenous phosphorylated GSK3β serine 9 (pGSK3β) are measured using the AlphaScreen SureFire® for pGSK3β(TGRGBS10K). This is a homogeneous assay format using immuno-sandwich capture of the phosphorylated analyte followed by detection using antibody-coated Alphascreen beads to generate an amplified signal.
U87MG cells are maintained in U87MG growth medium consisting of DMEM supplemented with 10% Fetal bovine serum, 1% Nonessential amino acids and 1% sodium pyruvate. For the assay, cells are harvested by standard procedures and then counted using Vi-Cell. Cells (50,000/well) are plated in 100 μL of U87MG growth medium into Costar #3596 96 well plates. Plates are incubated overnight at 37° C., 5% CO2.
On the day of the assay, cells are treated with 20 μL/well compound diluted in media containing 6% dimethylsulfoxide. […] The plate is sealed with foil, incubated at room temperature for 4 hours with gentle shaking and then read on Perkin Elmer EnVision equipped with a TurboModule using standard AlphaScreen® settings (Ex680 nm and Em520-620 nm). The percent inhibition determined from controls on each plate and ten-point compound concentration data are then fit to a four-parameter logistic equation using ACTIVITYBASE 4.0 (Assay Guidance Manual Version 5.0, 2008, Eli Lilly and Company and NIH Chemical Genomics Center).
(In general: In Alpha technology, singlet oxygen from a donor bead excites a nearby acceptor bead.)

For a further test, the target named is T2, hAKT1 Human Recombinant (Homo sapiens, UniProt P31749).
T2 construct: His tag; host or cells: insect cells
T2 sequence (P31749 whole entry): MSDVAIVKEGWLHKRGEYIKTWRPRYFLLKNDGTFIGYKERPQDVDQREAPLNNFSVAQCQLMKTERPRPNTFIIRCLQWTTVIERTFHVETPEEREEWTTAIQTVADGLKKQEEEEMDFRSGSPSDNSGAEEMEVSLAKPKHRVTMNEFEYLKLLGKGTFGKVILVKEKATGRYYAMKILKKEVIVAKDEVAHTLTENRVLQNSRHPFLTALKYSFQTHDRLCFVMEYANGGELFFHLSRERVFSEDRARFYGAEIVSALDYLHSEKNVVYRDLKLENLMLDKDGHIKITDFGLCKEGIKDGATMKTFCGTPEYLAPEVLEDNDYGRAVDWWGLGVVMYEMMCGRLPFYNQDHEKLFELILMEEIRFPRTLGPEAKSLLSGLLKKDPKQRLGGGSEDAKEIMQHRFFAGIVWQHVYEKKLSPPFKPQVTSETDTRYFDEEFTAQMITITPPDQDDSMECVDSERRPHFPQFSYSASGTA
The test is described as follows: AKT1 In Vitro Enzyme Assay (Transcreener Kinase ADP-FP). In kind it is biochemical. To be noted: 20 micromolar ATP; read-out: IC50 against AKT1. How it is done: Compound IC50 values against AKT1 target are determined using the AKT1 Transcreener™ Kinase ADP-FP Assay. This assay assesses the activity of AKT1 in the presence of compound inhibitors by measuring the concentration of adenosine diphosphate (ADP) formed in a kinase reaction. The kinase reactions (25 μL reaction volumes) are performed in 96-well half-area black polystyrene plates. Adenosine triphosphate (ATP) is added to start the reactions. Final reaction conditions are 56 millimolar N-2-hydroxyethylpiperazine-N′-2-ethanesulfonic acid (HEPES) pH 7.4, 0.008% TRITON™ X-100, 5 millimolar magnesium chloride, 30 micromolar Crosstide peptide, 20 micromolar ATP, hAKT1 Human Recombinant, V-AKT Murine Thymoma Viral Oncogene Homolog 1, histidine-tagged, expressed in insect cells, 4% dimethylsulfoxide and serial dilutions of compound (diluted 1:3 from 20,000 to 1 nanomolar). […] Quenched reactions are incubated for 4-16 hours, and then read in a Tecan Ultra Evolution plate reader in Fluorescence Polarization mode using polarizing filters of Ex612 nm and Em633 nm wavelength. […] The IC50 value for each compound is derived using percent inhibition data which is calculated using the micromolar ADP reaction data relative to on-plate controls (active enzyme versus 100 millimolar inhibited enzyme controls). […]

Another test concerns MCF-7. The test is described as follows: Cell proliferation combination study (CellTiter-Glo). Format: cell-based. The following applies: with Paclitaxel. As for the experimental part: (§1) The proliferation assay uses the CellTiter-Glo Luminescent Cell Viability Assay System (commercially available from Promega) to determine the cell number of viable cells in culture based on quantitation of the ATP present, which signals the presence of metabolically active cells.
(§2) The cells are plated in 96-well plate at 2000 cells/well in volume of 50 μL medium (DMEM, 10% FBS, 25 mM HEPES, 1.0 mM Sodium Pyruvate, and 0.1 mM Non Essential Amino Acids) except column 1 with medium only as blank control. The plates are incubated overnight at 37° C. and 5% CO2. On the next day, compound stocks are prepared at 40 mM in DMSO (500×) and serially diluted in DMSO in a 96-well round bottom polypropylene plate. Compounds are assayed at 10 concentrations in duplicate, 4 compounds per plate.
(§3) 4 μL of the serial DMSO dilutions are transferred to a 96 deep-well plate and 1 mL complete culture medium is added to create 2× stock for dosing. 50 μL of each 2× dosing stock is gently transferred to the corresponding well of the cell plate resulting in a 0.2% DMSO concentration and a 100 μL final volume. […] medium are added to the Control columns (Column 12) and background columns (Column 1). Cells are incubated with compound for at 37° C., 5% CO2 for 72 hr.
(§4) After incubation, 100 μL of the pre-prepared CellTiter-Glo reagent (Promega, Cat: G7571) is added in each well and then the cells are homogenized by mixing on an orbital shaker for 2 min and incubated at RT for 10 minutes to allow luminescent signal stabilization Luminescent raw data is recorded on Wallac Victor V plate reader and the IC50 value for each compound is generated using percent inhibition data. A four-parameter logistic curve is fit to each dose response.
(§5) Combination studies use the fixed ratio method, where the other therapeutic agent and the compound of the present invention are present in fixed ratios of concentrations corresponding to the IC50 equivalents of single agents. The read out for the combination studies is cell proliferation in respective cell lines using Cell Titer Glo reagents. Controls are processed similarly but without the compounds. Analysis of the data is done according to the method described in Zhao et. Al. (Clinical Cancer Research 10, 7994-8004, Dec. 1, 2004) utilizing an internally developed web based tool. A combination index is calculated for each cell proliferation inhibition activity level according to the equation below. Combination Index at activity level x=[Concentration of other therapeutic agent in the combination at the activity level x/ICx of the other therapeutic agent]+[Concentration of the compound of the present invention in the combination at the activity level x/ICx of the compound of the present invention]
(In ATP-based viability assays light output follows the ATP content of the culture.)

The test system of the next test is H1155. The description is as above. In kind it is cell-based. As for the experimental part: as §1, §2, §3, §4, §5
For a further test, the system named is MDA-MB-231. The description is as above. Format: cell-based. To be noted: with Paclitaxel. As for the experimental part:
as §1, §2, §3, §4, §5

Where two headings read alike, the source gives them in different places. Bounds are passed on as bounds.

Consider `CCc1cn(CCN2CCCC2)c(C2CCN(c3ncnc4c3[C@H](C(F)(F)F)CC(=O)N4)CC2)n1` [Example 26, (R)-4-(4-(4-ethyl-1-(2-(pyrrolidin-1-yl)ethyl)-1H-imidazol-2-yl)piperidin-1-yl)-5-(trifluoromethyl)-5,6-dihydropyrido[2,3-d]pyrimidin-7(8H)-one], for which the inhibition at 12.5 mg/kg in the test on AKT (read-out: Mean % Inhibition FOXO3a (T32)) turned out to be 36.8%; with AKT (read-out: Mean % Inhibition pAKT (S473)), 21.7%; in the test on AKT (read-out: Mean % Inhibition pGSK3β (S9)) it was 34.4%; in the test with AKT (read-out: Mean % Inhibition pPRAS40 (T246)), 8.1%.
On to `C[C@@H]1CC(=O)Nc2ncnc(N3CCC(c4nc(Cl)cn4CCN4CCCC4)CC3)c21` [Example 41, (R)-4-(4-(4-chloro-1-(2-(pyrrolidin-1-yl)ethyl)-1H-imidazol-2-yl)piperidin-1-yl)-5-methyl-5,6-dihydropyrido[2,3-d]pyrimidin-7(8H)-one], for which the results for the IC50 (in test [1]; in test [2]; on hAKT1 Human Recombinant) were above 20000 nM, 1500 nM and 17 nM, respectively.
As to `C[C@@H]1CC(=O)Nc2ncnc(N3CCC(c4nc(C5CCOCC5)cn4CCN4CCCC4)CC3)c21` [Example 73, (R)-5-Methyl-4-(4-(1-(2-(pyrrolidin-1-yl)ethyl)-4-(tetrahydro-2H-pyran-4-yl)-1H-imidazol-2-yl)piperidin-1-yl)-5,6-dihydropyrido[2,3-d]pyrimidin-7(8H)-one], the “Combination Index at 50% Inhibition” value was 0.56 in the test with MCF-7; 0.82 in the test on H1155 (with Cisplatin); 0.87 in the test on H1155 (with Gemcitabine); 0.29 with H1155 (with Pemetrexed); 1.25 in the test on MDA-MB-231.
